{
  "source": "patent US20090035287A1",
  "about": "“ATRIAL NATRIURETIC PEPTIDE (ANP) SPLICE VARIANTS AND METHODS OF USING SAME” (priority 2005, published 2009)",
  "key": {"[1]": {"test_system": "spontaneously hypertensive rats (SHR)", "test": "Renal and cardiovascular effects in anesthetized spontaneously hypertensive rats, 30-min intravenous infusion", "format": "in vivo, rat", "settings": "for heart rate change: i.v. 30-min infusion", "procedure": "The assay was performed with anesthetized spontaneously hypertensive rats (SHR) following intravenous administration of the various ANP-proteins by a 30-min infusion.\nMale Wistar-Okamoto derived spontaneously hypertensive rats (SHR) provided by National Laboratory Animal Center were used. Space allocation for 6 rats was 45×23×15 cm. All animals were maintained in a controlled temperature (23° C.-24° C.) and humidity (60%-70%) environment with 12 hours light dark cycles for at least one week in MDS Pharma Services—Taiwan Laboratory prior to use. Free access to standard lab chow (Laboratory Rodent Diet MF-18; Oriental Yeast Co., Ltd. Japan) and RO water was granted. All aspects of this work including housing, experimentation and disposal of animals were performed in general accordance with the Guide for the Care and Use of Laboratory Animals (National Academy Press, Washington, D.C., 1996).\nGroups of 5 male rats (SHR) weighing 250-300 g were employed. Rats were anaesthetized with Inactin (120 mg/kg i.p.). The left carotid artery, jugular vein, and bladder were cannulated with polyethylene (PE50) catheters. The arterial cannula was connected via a Statham (P 23×L) pressure transducer to a NEC/San-Ei Type 366 polygraph for direct mean arterial blood pressure measurements. Heart rate was derived from pulse pressure signals and monitored on a Data Acquisition and Analytic System (Power Lab 8/SP, AD Instruments, Australia). The body temperature was kept at 37° C. using a thermostat-controlled hot plate. The animals were primed with 1 ml 2.5% dextrose+0.45% NaCl intravenously, followed by continuous infusion of the same solution at a rate of 2.4 ml/hr with an infusion pump throughout the experiments. After an equilibration period of 30 min, a 30-min control urine sample was collected. Test compounds were dissolved in 2.5% dextrose+0.45% NaCl and delivered by infusion for 30 min at 2.4 ml/hr. […] The infusion rate was 2.4 ml/hr. Urine samples were collected through the catheter during infusion of peptides and in the two 30-min post-peptide periods. Urinary Na^+ concentration was measured with an atomic absorption spectrometer. All values represent mean±SEM and Dunnett's test was applied for comparison between corresponding time points for each drug-treated and control groups. Differences were considered significant at P<0.05."}, "[2]": {"biological_target": "T1, membrane-bound guanylyl cyclase (Rattus norvegicus, UniProt P18910)", "T1 construct": "from tissue; host or cells: lung of Wistar rats (membrane preparation)", "T1 sequence (P18910 29-1057)": "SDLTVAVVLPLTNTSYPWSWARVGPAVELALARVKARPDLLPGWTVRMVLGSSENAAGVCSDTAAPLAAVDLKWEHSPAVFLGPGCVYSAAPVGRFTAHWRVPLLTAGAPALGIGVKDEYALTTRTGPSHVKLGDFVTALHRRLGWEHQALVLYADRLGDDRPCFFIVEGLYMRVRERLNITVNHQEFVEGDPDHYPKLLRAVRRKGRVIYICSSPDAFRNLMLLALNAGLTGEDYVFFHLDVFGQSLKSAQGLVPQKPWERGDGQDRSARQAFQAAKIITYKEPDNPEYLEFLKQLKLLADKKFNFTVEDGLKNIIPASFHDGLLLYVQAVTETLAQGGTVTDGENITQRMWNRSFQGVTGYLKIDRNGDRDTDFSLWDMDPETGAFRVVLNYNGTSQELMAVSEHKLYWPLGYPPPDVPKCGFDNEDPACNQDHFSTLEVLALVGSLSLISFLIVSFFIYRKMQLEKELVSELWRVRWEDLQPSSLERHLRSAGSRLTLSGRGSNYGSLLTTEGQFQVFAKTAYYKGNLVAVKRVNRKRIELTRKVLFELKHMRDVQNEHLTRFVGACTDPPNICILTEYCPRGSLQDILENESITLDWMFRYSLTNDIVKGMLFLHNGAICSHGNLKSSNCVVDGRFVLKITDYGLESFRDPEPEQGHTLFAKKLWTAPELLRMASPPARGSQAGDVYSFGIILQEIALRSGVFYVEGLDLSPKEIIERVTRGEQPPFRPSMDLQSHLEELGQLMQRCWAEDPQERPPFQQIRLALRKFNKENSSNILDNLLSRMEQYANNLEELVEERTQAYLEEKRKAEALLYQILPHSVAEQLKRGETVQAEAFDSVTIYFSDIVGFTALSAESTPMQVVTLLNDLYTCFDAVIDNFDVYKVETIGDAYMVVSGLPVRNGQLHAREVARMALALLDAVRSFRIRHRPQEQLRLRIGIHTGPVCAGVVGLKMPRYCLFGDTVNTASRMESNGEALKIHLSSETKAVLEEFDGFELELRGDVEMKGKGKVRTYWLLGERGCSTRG", "test": "cGMP accumulation after activation of membrane-bound guanylyl cyclase in isolated rat lung membranes", "format": "biochemical", "procedure": "The agonist-like activity of the ANP variant peptides was evaluated by in vitro assays designed to measure cGMP accumulation after activation of membrane-bound guanylyl cyclase. Guanylyl cyclases (GC) are a family of enzymes (EC 4.6.1.2) that catalyse the formation of the second messenger cyclic GMP (cGMP) from GTP. Activation of GCs leads to an increase in the concentration of the intracellular messenger molecule cGMP. GCs are subdivided into soluble GCs and GCs that are membrane-bound and linked to a receptor. Activation occurs through binding of nitric oxide (NO) and peptide hormones, respectively. Six different isoforms of membrane-bound GC (GC-A, GC-B, GC-C, GC-D, GC-E and GC-F) are known. The guanylyl cyclase A (GC-A) isoform acts as the receptor for the natriuretic peptides ANP and BNP.\nAs ANP is known to stimulate GC-A, the effect of known and variant ANP peptides on guanlyl cyclase was examined. The procedure employed was essentially as described in Glover V, et al., 1995 Life Sci. 57(22): 2073-2079; Nashida T, Imai A and Shimomura H (2000), Mol Cell Biochem. 208(1-2): 27-35. Briefly, membrane-bound guanylyl cyclase isolated from the lung of Wistar rats was used. […] The reaction was terminated by addition of 1 N HCl and the supernatant evaluated for cGMP level by EIA. Enzyme activity was determined spectrophotometrically by measuring the formation of cGMP. […]"}, "[3]": {"biological_target": "T2, membrane-bound guanylyl cyclase isolated from the lung of Wistar rats (rat, UniProt P18910 29-1057)", "T2 sequence (looked up)": "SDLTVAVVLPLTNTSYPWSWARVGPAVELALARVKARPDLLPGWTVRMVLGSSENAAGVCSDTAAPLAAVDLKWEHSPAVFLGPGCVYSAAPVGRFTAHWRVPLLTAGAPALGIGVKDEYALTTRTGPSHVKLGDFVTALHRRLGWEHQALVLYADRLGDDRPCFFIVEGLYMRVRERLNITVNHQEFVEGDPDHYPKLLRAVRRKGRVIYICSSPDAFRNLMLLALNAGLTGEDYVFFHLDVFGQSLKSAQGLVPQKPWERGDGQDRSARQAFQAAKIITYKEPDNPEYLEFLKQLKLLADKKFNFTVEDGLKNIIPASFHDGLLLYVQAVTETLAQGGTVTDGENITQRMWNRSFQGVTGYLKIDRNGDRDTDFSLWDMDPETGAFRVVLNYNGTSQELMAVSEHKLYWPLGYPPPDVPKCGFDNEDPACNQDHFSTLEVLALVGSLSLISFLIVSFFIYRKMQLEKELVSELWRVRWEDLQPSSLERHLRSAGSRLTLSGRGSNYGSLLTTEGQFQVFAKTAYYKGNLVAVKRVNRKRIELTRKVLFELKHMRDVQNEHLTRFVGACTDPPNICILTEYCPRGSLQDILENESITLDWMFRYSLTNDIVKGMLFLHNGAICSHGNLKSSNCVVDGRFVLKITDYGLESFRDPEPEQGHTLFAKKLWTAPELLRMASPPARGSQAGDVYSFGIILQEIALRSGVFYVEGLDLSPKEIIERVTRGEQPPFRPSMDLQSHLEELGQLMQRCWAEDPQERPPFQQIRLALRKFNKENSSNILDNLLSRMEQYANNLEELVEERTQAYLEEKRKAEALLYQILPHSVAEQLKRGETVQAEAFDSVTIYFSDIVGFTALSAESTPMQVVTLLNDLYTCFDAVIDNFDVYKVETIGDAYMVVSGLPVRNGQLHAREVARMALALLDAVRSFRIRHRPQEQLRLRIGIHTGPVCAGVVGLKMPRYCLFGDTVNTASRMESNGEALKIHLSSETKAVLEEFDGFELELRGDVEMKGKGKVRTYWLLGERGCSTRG", "test": "cell-based or functional assay"}, "[4]": {"settings": "i.v. infusion 1 μg/kg/min × 30 min"}, "[5]": {"settings": "i.v. infusion 3 μg/kg/min × 30 min"}, "[6]": {"settings": "i.v. infusion 1 and 3 μg/kg/min × 30 min"}},
  "note": "Bridge positions count the residues as written; N and C are the ends. Ends that are not written are not given here.",
  "data": [
    {"molecule": "CC[C@H](C)[C@@H]1NC(=O)[C@H](CCCNC(=N)N)NC(=O)[C@H](CC(=O)O)NC(=O)[C@H](CCSC)NC(=O)[C@H](CCCNC(=N)N)NC(=O)CNC(=O)CNC(=O)[C@H](Cc2ccccc2)NC(=O)[C@@H](NC(=O)[C@H](CO)NC(=O)[C@H](CO)NC(=O)[C@H](CCCNC(=N)N)NC(=O)[C@H](CCCNC(=N)N)NC(=O)[C@H](CC(C)C)NC(=O)[C@@H](N)CO)CSSC[C@@H](C(=O)N[C@@H](CC(N)=O)C(=O)N[C@@H](CO)C(=O)N[C@@H](Cc2ccccc2)C(=O)N[C@@H](CCCNC(=N)N)C(=O)N[C@@H](Cc2ccc(O)cc2)C(=O)O)NC(=O)CNC(=O)[C@H](CC(C)C)NC(=O)CNC(=O)[C@H](CO)NC(=O)[C@H](CCC(N)=O)NC(=O)[C@H](C)NC(=O)CNC1=O", "note": "[Carperitide, reference compound]", "values": [
      {"measurement": "heart rate change", "setting": "[1]", "value": "less pronounced"}
    ]},
    {"molecule": "SLRRSSCFGGRMDRIGAQSGLGCNSFRELNWLRPLMEQPLLSLME (disulfide 7-23) [ANP-45]", "values": [
      {"measurement": "heart rate change", "setting": "[1]", "value": "decrease in heart rate"},
      {"measurement": "absolute change of mean arterial pressure (MAP-infusion minus MAP-baseline)", "setting": "[1]; [4]", "value": "−28", "unit": "mmHg"},
      {"measurement": "absolute change of mean arterial pressure (MAP-infusion minus MAP-baseline)", "setting": "[1]; [5]", "value": "−37", "unit": "mmHg"},
      {"measurement": "urine volume (diuresis)", "setting": "[1]; [5]", "value": "pronounced diuresis, similar in magnitude to that of Carperitide"},
      {"measurement": "urinary sodium excretion (natriuresis)", "setting": "[1]; [6]", "value": "dose-dependent increase in urinary sodium excretion"},
      {"measurement": "urine volume (diuresis), dose dependence", "setting": "[1]; [6]", "value": "dose-dependent increase in urine volume"},
      {"measurement": "cGMP accumulation, agonist activity in words", "setting": "[2]", "value": "level comparable to the known control molecules"}
    ]},
    {"molecule": "TAPRSLRRSSCFGGRMDRIGAQSGLGCNSFRELNWLRPLMEQPLLSLME (disulfide 11-27) [ANP-49]", "values": [
      {"measurement": "heart rate change", "setting": "[1]", "value": "decrease in heart rate"},
      {"measurement": "absolute change of mean arterial pressure (MAP-infusion minus MAP-baseline)", "setting": "[1]; [4]", "value": "−1", "unit": "mmHg"},
      {"measurement": "urine volume (diuresis)", "setting": "[1]; [4]", "value": "such effect was not observed"},
      {"measurement": "absolute change of mean arterial pressure (MAP-infusion minus MAP-baseline)", "setting": "[1]; [5]", "value": "−23", "unit": "mmHg"},
      {"measurement": "urine volume (diuresis)", "setting": "[1]; [5]", "value": "even higher increase in urine volume relative to Carperitide"},
      {"measurement": "cGMP accumulation, agonist activity in words", "setting": "[2]", "value": "level comparable to the known control molecules"}
    ]},
    {"molecule": "CC[C@H](C)[C@@H]1NC(=O)[C@H](CCCNC(=N)N)NC(=O)[C@H](CC(=O)O)NC(=O)[C@H](CCSC)NC(=O)[C@H](CCCNC(=N)N)NC(=O)CNC(=O)CNC(=O)[C@H](Cc2ccccc2)NC(=O)[C@@H](NC(=O)[C@H](CO)NC(=O)[C@H](CO)NC(=O)[C@H](CCCNC(=N)N)NC(=O)[C@H](CCCNC(=N)N)NC(=O)[C@H](CC(C)C)NC(=O)[C@@H](N)CO)CSSC[C@@H](C(=O)N[C@@H](CC(N)=O)C(=O)N[C@@H](CO)C(=O)N[C@@H](Cc2ccccc2)C(=O)N[C@@H](CCCNC(=N)N)C(=O)N[C@@H](Cc2ccc(O)cc2)C(=O)O)NC(=O)CNC(=O)[C@H](CC(C)C)NC(=O)CNC(=O)[C@H](CO)NC(=O)[C@H](CCC(N)=O)NC(=O)[C@H](C)NC(=O)CNC1=O", "note": "[ANP-28, reference compound]", "values": [
      {"measurement": "heart rate change", "setting": "[1]; listed as ANP28", "value": "decrease in heart rate"}
    ]},
    {"molecule": "TAPRSLRRSSCFGGRMDRIGAQSGLGCNSFRELNWLRPLMEQPLLSLME (disulfide 11-27)", "note": "[ANP-49 (variant)]", "values": [
      {"measurement": "cGMP accumulation after activation of membrane-bound guanylyl cyclase (EIA), EC50", "setting": "[3]", "value": 138, "unit": "nM"}
    ]},
    {"molecule": "SLRRSSCFGGRMDRIGAQSGLGCNSFRELNWLRPLMEQPLLSLME (disulfide 7-23)", "note": "[ANP-45 (variant)]", "values": [
      {"measurement": "cGMP accumulation after activation of membrane-bound guanylyl cyclase (EIA), EC50", "setting": "[3]", "value": 86.3, "unit": "nM"}
    ]}
  ]
}
